Experimental data: patent US20230086007A1, “USE OF DENATONIUM BENZOATE AS A SEED TREATMENT FOR CROPS AS BIRD AND/OR INSECT REPELLENT” (KWS SAAT SE & Co. KGaA, priority 2020, published 2023)
“And” between values parts separate entries of the source, which are not always exact repeats. Equal entries are not always repeated. “Also recorded” adds a separate entry of the source.

Experiments:
[1] = LC-MS-MS determination of Bitrex in hybrid rye seedlings; format: in vivo
Procedure: Additional experiments in hybrid rye show also excellent systemic uptake and distribution of Bitrex. Seeds of a hybrid rye variety have been treated in application A with KintoPlus 150 ml/100 kg seeds and Bitrex 75 g/100 kg seeds and in application B with KintoPlus 150 ml/100 kg seeds and Bitrex 150 g/100 kg seeds. Seeds have been sown in longitudinal plots of 15 qm in four repetitions. 3 weeks after sowing seedlings have been harvested (40 plants per plot) and leaf material and root tissue have been analyzed using Liquid Chromatography with tandem mass spectrometry (LC-MS-MS) as described above.

[2] = system: crows; assay: Field trials on efficacy as a bird repellent, corn seed, plant stand counts; format: in vivo, Corvus; settings: 0.4 g/50.000 seeds with Redigo M or Maxim XL, 0.8 g/50.000 seeds stand-alone, plant stand counts 3 weeks after emergence, listed as denatonium benzoate
Source text: To evaluate the efficacy of different substances as a bird repellent, 25 locations throughout Europe have been identified with a potentially high pressure of bird damage. 17 different substances (DSM RD9103 BRP, Chili extract, Black Cumin oil, Yucca extract, Mentha pulegium extract, Aluminium-Ammonium-sulfate, Hops extract, fat encapsulated plant extracts, alginate encapsulated plant extracts, Tefluthrin, Thiram, Ziram, Methiocarb, yellow colour substance, denatonium benzoate, SatecWFO20, Redigo M, Maxim XL) have been chosen to evaluate differences on feeding behavior of crows. Three chemical references have been included in the trial: Mesurol liquid (Active substance Methiocarb), Korit (Active Substance Ziram) and TMTD (Active Substance Thiram). Mesurol liquid (Methiocarb) was the standard bird repellent in the past, with a European expiry date of the 3rd of April 2020. TMTD (Thiram) can be used until 30th of January 2020. Korit (Ziram) expires in 2021.
Denatonium benzoate has been tested in 2 different concentrations: 0.4 g/50.000 seeds in combination with standard fungicides Redigo M and Maxim XL and 0.8 g/50.000 seeds as a stand-alone. […]
3 weeks after emergence, 9 locations with bird damage have been identified. Plant stand counts have been assessed and summarized.

[3] = system: wireworm of genus Agriotes; assay: Wireworm repellent pot assay on corn in climate chamber; format: in vivo; settings: climate chamber 18° C. day/12° C. night; eighteen days after sowing
Procedure: The denatonium benzoate (Bitrex) was tested in concentrations of 0.5 g/unit (wherein 1 unit=50.000 seeds), 1 g/unit and 5 g/unit, either without any other plant protection product (variants 3 and 4) or with RedigoM (active ingredients 100 g/l Prothioconazole (PRO) and 20 g/l Metalaxyl (MTL); (variants 6-8). Sticker was always Sepiret 9290 red, whereby 30 ml/unit has been applied. Variant 1 is the negative control wherein no treatment of the seeds took place, variant 2 is another control only treated with the sticker. Variant 5 is RedigoM and sticker without Bitrex. Variants 9 and 10 serve as positive control. Beside RedigoM and the sticker, the seeds have been treated with either with Force 20 CS (active ingredient: tefluthrin (TEF); or with Poncho® 600 (active ingredient: clothianidin (CLO). Both Force 20 CS and Poncho® 600 are standard treatments against wireworm infestation. All testing were conducted on corn variety Amavit of KWS SAAT SE & Co. KGaA.
Testing has been repeated in climate chambers in order to ensure high humidity and moderate temperatures which results in optimal environmental condition for the wireworm. Thereby, a high level of insect pressure on the seeded corn should be simulated. […]
Eighteen days after sowing the plant biomass (Table 6) as well as seed damage (FIG. 4B; Table 6) were assessed.

[4] = LC-MS-MS determination of denatonium benzoate in corn plants grown from treated seed; format: in vivo, Zea mays; settings: for Bitrex concentration: first leaf of corn seedling
Procedure: To determine, if denatonium benzoate could be systemic (taken up by the plant), a Liquid Chromatography with tandem mass spectrometry (LC-MS-MS) was performed, which is a powerful analytical technique that combines the separating power of liquid chromatography with the highly sensitive and selective mass analysis capability of triple quadrupole mass spectrometry. Therefore, we used 1) seedlings just after field emergence to determine the content of denatonium benzoate in the complete plant and in the sprout separately (Table 3), as well as 2) middle-aged plants (V6-V8), where the leaves have been investigated (Table 4).
Beside above experiments the concentration of Bitrex in the first leaf of the seedling have been measured wherein different dosages of Bitrex have been applied to the seed. The higher the application rate, the higher was the Bitrex concentration in the tested leaf tissue.

[5] = system: crows; settings: wheat seed treatment; cited from earlier work
[6] = system: corvid; assay: Additional bird repellent field trials at three locations in Germany, plant stand counts; format: in vivo, Corvus; settings: corn seed, denatonium benzoate 1 g/50.000 seeds
Source text: The bird repellent effect of denatonium benzoate has further been evaluated in additional field trials at three different location in Germany. Denatonium benzoate alone (DNB) or denatonium benzoate in combination with a solution of micronutrients (DNB+HA450) mixed with a sticker have been applied to the seeds. Denatonium benzoate has been applied in a concentration of 1 g/50.000 seeds. Three chemical references have been included in the trials: Korit (active substance: Ziram), Curb Crop Garden Powder with Sphere's formulation (active substance: aluminium ammonium sulphate) and Schwefal (active substance: organic sulfur). As negative control untreated seed has been used.
Plant stand counts have been assessed and summarized. […] Results of earlier field trials have been confirmed.

For CC[N+](CC)(CC(=O)Nc1c(C)cccc1C)Cc1ccccc1.O=C([O-])c1ccccc1 [Bitrex, N-Benzyl-2-(2,6-dimethylanilino)-N, N-diethyl-2-oxoethan-1-aminium benzoate], the “concentration of Bitrex in kernels” value ([1]; hybrid rye) was “up to 460,000 ng/g”, the “Mean Bitrex concentration” value ([1]; hybrid rye seedlings 3 weeks after sowing, root, application B: KintoPlus 150 ml/100 kg seeds and Bitrex 150 g/100 kg seeds) was 21169.7 ng/g and 25378.0 ng/g and 18336.0 ng/g and 15826.3 ng/g and the “Mean Bitrex concentration” value ([1]; hybrid rye, kernel, application A: KintoPlus 150 ml/100 kg seeds and Bitrex 75 g/100 kg seeds) was 460473.8 ng/g. For the same compound, the “efficiency as corvid repellent for corn” value [2] was “excellent effect; also recorded: comparable or even better than the best bird repellents like Thiram, Korit and Mesurol”, the “effect on development of biomass, seed damages and seedling damages” value [3] was “positive effect” and the “μg DNB/plant or sprout” value ([4]; corn seedlings just after field emergence, complete plants) was 5.87 μg DNB/plant or sprout. The concentration in sprouts ([4]; corn, early stage) was 200-800 ppb, the “concentration in the complete plant” value ([4]; corn, early stage) was 10-20 ppm and the Bitrex concentration ([4]; 0.8 g/unit applied to seed) was 36.8 ng/g. For the same compound, the Bitrex concentration ([4]; 1 g/unit applied to seed) was 96.2 ng/g and 88.7 ng/g and 75.2 ng/g and 55.0 ng/g and 70.4 ng/g and 97.1 ng/g, the Bitrex concentration ([4]; 2 g/unit applied to seed) was 178.2 ng/g and 155.6 ng/g and the concentration in leaves ([4]; middle-aged corn plants) was 5-20 ppb. For the same compound, the “Final Conc.” value ([4]; middle-aged corn plants (V6-V8), leaves, sample 14 DNB 0.8g, plants P1-P3, listed as DNB) was 5.49 ppb/ng/g and 5.34 ppb/ng/g and 5.46 ppb/ng/g, the “corvid repellent effect in wheat” value [5] was “only provided a modest improvement” and the “efficiency as corvid repellent for corn” value [6] was “excellent effect; also recorded: comparable with the best bird repellents like Korit and Sphere”.
